# Measurements as given in US20070299043A1, “Anti-scarring drug combinations and use thereof” (priority 2005, published 2007).
# Where a name gives a salt, the structure may show the parent alone.
# Columns and labels:
# [1] = Increase of the potency of an immunosuppressive agent
# [2] = tested on: S. aureus ATCC25923 C622; assay: MIC by microtitre broth dilution; format: cell-based; conditions: Gram+, wt; Mueller Hinton broth, 37° C, 24h
# Experimental: (§1) MIC assays were conducted essentially as described by Amsterdam, D. 1996, “Susceptibility testing of antimicrobials in liquid media”, p. 52-111, in Loman, V., ed. Antibiotics in laboratory medicine, 4th ed. Williams and Wilkins, Baltimore, Md.
# [3] = tested on: S. pyogenes C721; assay: MIC by microtitre broth dilution; format: cell-based; conditions: Gram+, wt; Todd Hewitt broth, 37° C, 24h
# Experimental: as §1
# [4] = tested on: K. pneumoniae ATCC13883 C238; assay: MIC by microtitre broth dilution; format: cell-based; conditions: Gram−, wt; Mueller Hinton broth, 37° C, 24h
# Experimental: as §1
# [5] = tested on: P. aeruginosa PAE/K799 H187; assay: MIC by microtitre broth dilution; format: cell-based; conditions: Gram−, wt; Mueller Hinton broth, 37° C, 24h
# Experimental: as §1
# [6] = tested on: E. coli UB1005 C498; assay: MIC by microtitre broth dilution; format: cell-based; conditions: for Minimum inhibitory concentration: Gram−, wt, Mueller Hinton broth, 37° C, 24h
# Experimental: as §1
# [7] = tested on: S. epidermidis C621; assay: MIC by microtitre broth dilution; format: cell-based; conditions: Gram+, wt; Mueller Hinton broth, 37° C, 24h
# Experimental: as §1
# [8] = 200 mg/day orally; cited from earlier work
# [9] = cited from earlier work; for solubility in alcohol/ethanol: alcohol or ethanol
# [10] = tested on: multiple species of bacteria and fungi; conditions: surface drug concentration is to be in excess of this value; cited from earlier work
# [11] = tested on: NFkB and AP1; assay: NFkB and AP1 activation; format: cell-based
# [12] = tested on: p38, JNK, ERK; assay: p38, JNK and ERK activation; format: cell-based
# [13] = tested on: NFAT; assay: NFAT activation, translocation and transactivation; format: cell-based
# [14] = molecular target: T1, glucocorticoid receptor (Homo sapiens, UniProt P04150); assay: Glucocorticoid receptor trafficking and GRE reporter plasmid transactivation in T cells; format: cell-based; conditions: for potentiation of prednisolone's ability to transactivate a GRE reporter plasmid: T cells
# T1 construct: endogenous in cells; host or cells: T cells
# T1 sequence (P04150 1-777): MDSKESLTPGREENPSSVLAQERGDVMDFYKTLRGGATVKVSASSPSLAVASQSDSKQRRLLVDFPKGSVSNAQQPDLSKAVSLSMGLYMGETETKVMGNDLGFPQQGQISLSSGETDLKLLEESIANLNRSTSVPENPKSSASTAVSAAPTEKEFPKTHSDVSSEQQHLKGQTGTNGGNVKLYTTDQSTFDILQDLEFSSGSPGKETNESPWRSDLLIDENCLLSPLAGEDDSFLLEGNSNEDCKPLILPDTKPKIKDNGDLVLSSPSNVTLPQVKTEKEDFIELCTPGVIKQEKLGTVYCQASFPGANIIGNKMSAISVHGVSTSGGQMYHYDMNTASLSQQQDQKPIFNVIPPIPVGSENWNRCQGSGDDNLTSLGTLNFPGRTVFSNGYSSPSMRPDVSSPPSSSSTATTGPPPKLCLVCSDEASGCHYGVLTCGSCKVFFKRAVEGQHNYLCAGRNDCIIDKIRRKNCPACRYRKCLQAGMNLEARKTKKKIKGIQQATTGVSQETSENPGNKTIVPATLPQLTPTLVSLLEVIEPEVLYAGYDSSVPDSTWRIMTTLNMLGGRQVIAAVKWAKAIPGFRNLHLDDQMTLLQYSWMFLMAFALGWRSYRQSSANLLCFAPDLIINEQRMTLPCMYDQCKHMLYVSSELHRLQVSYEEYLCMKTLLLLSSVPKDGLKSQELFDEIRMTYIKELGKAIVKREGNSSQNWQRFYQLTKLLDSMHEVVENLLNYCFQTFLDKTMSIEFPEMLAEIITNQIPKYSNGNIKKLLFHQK
# [15] = tested on: mast cells and eosinophil activation
# [16] = tested on: LPS-induced TNF-α production; assay: Acute in vivo model of inflammation (LPS-induced TNF-α release); conditions: component alone (prednisolone at reduced dose)
# [17] = tested on: carrageenan-induced paw edema; assay: Rat carrageenan-induced paw edema model, paw volume; format: in vivo; conditions: Amoxapine 2.26 mg/kg, foot pad, T-1 hr; Tmax = 6 hrs; listed as amoxapine (Amox)
# Experimental: A dose-range finding study was performed to determine the anti-inflammatory activity of various ratios of methyl prednisolone acetate and amoxapine in a rat carrageenan-induced paw edema model. […] The molar ratio of methyl prednisolone acetate to amoxapine ranged from 1:1 to 1:300, using total doses of methyl prednisolone acetate of 0.01, 0.03 or 0.1 mg/kg.
# The test agent (a combination of methyl prednisolone acetate and amoxapine), vehicle control, or reference agents (methyl prednisolone acetate, amoxapine, or Depo-Medrol®) were administered in the left hind foot pad of rats. After 60 minutes, paw edema was induced by injection of 100 μl of 1% carrageenan in the same foot pad. The paw volume was measured with a water displacement plethysmometer immediately prior to test agent injection (T−1h), at the time of carrageenan injection (T0h), and at T6h. Animals were euthanized by carbon dioxide inhalation. Paw tissue samples were collected and flash frozen in liquid nitrogen. Samples were assayed for TNF-α by enzyme-linked immunoassay (ELISA).
# [18] = tested on: joint swelling; assay: Chronic in vivo arthritis model (adjuvant model), joint swelling; conditions: component alone (prednisolone at reduced dose)
smiles,measurement,setting,value
"CCN(CC)C(C)CN1c2ccccc2Sc2ccccc21 (stereo not drawn) [Ethopropazine, ethopropazine]",potency of an immunosuppressive agent,[1],increases the potency
Oc1cc(Cl)ccc1Oc1ccc(Cl)cc1Cl [triclosan],potency of an immunosuppressive agent,[1],increases the potency
CNCCCC12CCC(c3ccccc31)c1ccccc12 [maprotiline],potency of an immunosuppressive agent,[1],increases the potency
CC[C@@]1(O)C(=O)OCc2c1cc1n(c2=O)Cc2cc3ccccc3nc2-1 [camptothecin],Minimum inhibitory concentration,[2],N
same,Minimum inhibitory concentration,[3],N
same,Minimum inhibitory concentration,[4],N
same,Minimum inhibitory concentration,[5],N
same,Minimum inhibitory concentration,[6],N
Nc1ncnc2c1ccn2[C@@H]1O[C@H](CO)[C@@H](O)[C@H]1O [tubercidin],Minimum inhibitory concentration,[2],N
same,Minimum inhibitory concentration,[3],N
same,Minimum inhibitory concentration,[4],N
same,Minimum inhibitory concentration,[7],N
same,Minimum inhibitory concentration,[5],N
same,Minimum inhibitory concentration,[6],N
CN(C)C(=O)C(CCN1CCC(O)(c2ccc(Cl)cc2)CC1)(c1ccccc1)c1ccccc1 [Loperamide],potency of an immunosuppressive agent,[1],increase the potency
"Nc1ccn([C@@H]2O[C@H](CO)[C@@H](O)[C@@H]2O)c(=O)n1 [Cytarabine, cytarabine]",Minimum inhibitory concentration,[6],N
Sc1ncnc2nc[nH]c12 [6-mercaptopurine],Minimum inhibitory concentration,[6],N
CN(Cc1cnc2nc(N)nc(N)c2n1)c1ccc(C(=O)N[C@@H](CCC(=O)O)C(=O)O)cc1 [methotrexate],Minimum inhibitory concentration,[2],10^−5 Molar
same,Minimum inhibitory concentration,[3],10^−6 Molar
same,Minimum inhibitory concentration,[4],10^−6 Molar
same,Minimum inhibitory concentration,[7],N
same,Minimum inhibitory concentration,[5],N
same,Minimum inhibitory concentration,[6],N
CC(=O)N1CCN(c2ccc(OCC3COC(Cn4ccnc4)(c4ccc(Cl)cc4Cl)O3)cc2)CC1 (stereo not drawn) [ketoconazole],serum concentration,[8],about 3.2 micrograms
same,solubility in water,[9],essentially insoluble in water
O=C1c2c(O)ccc(O)c2C(=O)c2c(NCCNCCO)ccc(NCCNCCO)c21 [mitoxantrone],Minimum inhibitory concentration,[6],10^−5 Molar
same,concentration known to be lethal to multiple species of bacteria and fungi,[10],> 10^−5 M
"Fc1ccc(C2CCNCC2COc2ccc3c(c2)OCO3)cc1 (single isomer, unassigned; (-)) [paroxetine, (−)-trans-4 R-(4′-fluorophenyl)-3 S-[(3′,4′-methylenedioxyphenoxy)methyl]piperidine hydrochloride hemihydrate]",NFkB and AP1 activation,[11],inhibits
same,ERK activation,[12],but not ERK activation
same,p38 and JNK activation,[12],inhibition
same,"NFAT activation, translocation and transactivation",[13],represses
same,promotion of glucocorticoid receptor trafficking,[14],does not promote
same,potentiation of prednisolone's ability to transactivate a GRE reporter plasmid,[14],does not promote glucocorticoid receptor trafficking or potentiate
CCOC(=O)N1CCC(=C2c3ccc(Cl)cc3CCc3cccnc32)CC1 [loratadine],mast cells and eosinophil activation,[15],inhibits
"COc1cccc2c1C(=O)c1c(O)c3c(c(O)c1C2=O)C[C@@](O)(C(=O)CO)C[C@@H]3O[C@H]1C[C@H](N)[C@H](O)[C@H](C)O1 [doxorubicin, Doxorubicin]",Minimum inhibitory concentration,[2],10^−5 Molar
same,Minimum inhibitory concentration,[3],10^−7 Molar
same,Minimum inhibitory concentration,[4],10^−6 Molar
same,Minimum inhibitory concentration,[7],10^−6 Molar
same,Minimum inhibitory concentration,[5],10^−5 Molar
same,Minimum inhibitory concentration,[6],10^−4 Molar
same,concentration known to be lethal to multiple species of bacteria and fungi,[10],> 10^−4 M
N.N.[Cl][Pt][Cl] [cisplatin],Minimum inhibitory concentration,[2],N
same,Minimum inhibitory concentration,[3],N
same,Minimum inhibitory concentration,[4],N
same,Minimum inhibitory concentration,[7],N
same,Minimum inhibitory concentration,[5],10^−4 Molar
same,Minimum inhibitory concentration,[6],N
COc1cc([C@@H]2c3cc4c(cc3[C@@H](O[C@@H]3O[C@@H]5CO[C@@H](C)O[C@H]5[C@H](O)[C@H]3O)[C@H]3COC(=O)[C@H]23)OCO4)cc(OC)c1O [etoposide],Minimum inhibitory concentration,[6],N
"O=c1[nH]cc(F)c(=O)[nH]1 [5-fluorouracil, 5-Fluorouracil]",MIC,"[6]; Escherichia coli, UB1005C498, 24 h, read-out: Minimum inhibitory concentration",1 µM
same,concentration known to be lethal to multiple species of bacteria and fungi,[10],> 10^−4 M
NC(=O)NO [hydroxyurea],Minimum inhibitory concentration,[2],N
same,Minimum inhibitory concentration,[3],10^−4 Molar
same,Minimum inhibitory concentration,[4],N
same,Minimum inhibitory concentration,[7],N
same,Minimum inhibitory concentration,[5],10^−4 Molar
same,Minimum inhibitory concentration,[6],N
"NC(=O)c1ncn([C@@H]2O[C@H](CO)[C@@H](O)[C@H]2O)n1 [Ribavirin, ribavirin]",solubility in alcohol/ethanol,[9],only slightly soluble in alcohol
Sc1ncc2[nH]cnc2n1 [2-mercaptopurine],Minimum inhibitory concentration,[6],N
"Nc1ccc(/N=N/c2ccccc2)c(N)n1 [Phenazopyridine base, phenazopyridine]",solubility in alcohol/ethanol,[9],slightly soluble in water and alcohol
same,solubility in water,[9],slightly soluble in water and alcohol
Clc1ccc2c(c1)C(N1CCNCC1)=Nc1ccccc1O2 [amoxapine],effect of the individual component alone,[16],modest or no benefit
same,Edema ± SEM,[17],not significantly different from the vehicle treatment
same,NFkB and AP1 activation,[11],partially inhibits
same,effect of the individual component alone,[18],modest or no benefit
same,ERK activation,[12],unaffected
same,p38 and JNK activation,[12],Inhibition
same,"NFAT activation, translocation and transactivation",[13],block
same,promotion of glucocorticoid receptor trafficking,[14],does not promote
same,potentiation of prednisolone's ability to transactivate a GRE reporter plasmid,[14],does not potentiate
